Experimental data published in patent US8916708B2, “Urea derivatives and their therapeutic use in the treatment of, inter alia, diseases of the respiratory tract” (Chiesi Farmaceutici S.p.A., priority 2010, dated 2014).

Legend:
[1] = molecular target: T1, Human recombinant p38 enzyme (p38α) (Homo sapiens, UniProt Q16539); assay: p38 Kinase Assay (ATF-2 phosphorylation ELISA); type: biochemical; conditions: 2h pre-incubation with p38 kinase, ATP 250 μM, 1% DMSO; read-out: p38α inhibition (IC50)
T1 construct: purchased Calbiochem 559324; host or cells: E. coli
Description: Human recombinant p38 enzyme expressed in E. coli and activated by incubation with MKK6 enzyme (Calbiochem #559324) is used as source of enzyme activity.
The assay is carried in high binding, clear, flat bottom 96 well assay plates which have been coated with recombinant ATF-2 (Biosource #PHF0043). Test compounds are incubated with p38 kinase for 2h prior to initiating the kinase assay by the addition of ATP to obtain an assay concentration of 250 μM . Phosphorylation of ATF-2 is detected and quantified using an ELISA. This consists of sequential incubation in the presence of anti-phospho-ATF2, biotinylated anti-IgG and streptavidin-HRP. Incubation with an HRP chromogenic substrate (TMB) results in absorbance that is proportional to the amount of phosphorylated substrate produced. Absorbance is detected using a multiwell plate reader.
Compounds are diluted in DMSO prior to addition to assay buffer, the final DMSO concentration in the assay being 1%.
The IC50 is defined as the concentration at which a given compound achieves 50% inhibition of control.

[2] = test system: LPS activated THP-1 cells (TNFα release); assay: p38 Functional Assay: TNFα release from LPS activated THP-1 cells; type: cell-based; conditions: Homo sapiens, inhibition of TNFα release, 1h pre-treatment then LPS, 0.3% DMSO
Description: Inhibition of cellular p38 depresses the release of TNFα, a functional response which is quantified by measurement of the amount of TNFα in the supernatants of LPS activated THP-1 cells (an immortalised monocytic cell line) or peripheral blood mononuclear cells (PBMC's) isolated from freshly drawn human blood.
Cells seeded in 96 well plates are pre-treated by the addition of p38 inhibitors for 1h followed by addition of lipopolysaccharide (LPS) to activate cytokine production and release. The amount of TNFα released into the cell supernatants is quantified using an R&D Systems enzyme linked immunosorbant assay (ELISA) kit (product DY210) following the manufacturers instructions.
Compounds are diluted in DMSO prior to addition, the final DMSO concentration in the assay being 0.3%. The EC50 is defined as the concentration at which a given compound achieves 50% inhibition of the control.

T1 sequence (Q16539 whole entry): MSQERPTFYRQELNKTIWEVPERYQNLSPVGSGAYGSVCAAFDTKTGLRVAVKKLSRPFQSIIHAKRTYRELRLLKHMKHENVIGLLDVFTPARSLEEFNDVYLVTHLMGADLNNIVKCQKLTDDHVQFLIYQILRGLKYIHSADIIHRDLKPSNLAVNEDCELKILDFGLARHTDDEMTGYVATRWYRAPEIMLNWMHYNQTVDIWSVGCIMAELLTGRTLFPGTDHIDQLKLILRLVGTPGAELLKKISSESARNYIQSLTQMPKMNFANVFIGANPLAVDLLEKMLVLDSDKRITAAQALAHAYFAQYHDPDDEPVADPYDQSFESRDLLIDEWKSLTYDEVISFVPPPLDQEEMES

| SMILES | IC50 [1] | EC50 [2] |
| --- | --- | --- |
| Cc1ccc(-n2nc(C(C)(C)C)cc2NC(=O)N[C@H]2CC[C@@H](Oc3ccc4nnc(-c5c(Cl)cccc5Cl)n4c3)c3ccccc32)cc1 (racemic) [Example 4, (+/−)1-(5-tert-Butyl-2-p-tolyl-2H-pyrazol-3-yl)-3-{4-[3-(2,6-dichloro-phenyl)[1,2,4]triazolo[4,3-a]pyridin-6-yloxy]-cis-1,2,3,4-tetrahydro-naphthalen-1-yl}-urea] | < 10 nM | < 10 nM |
| Cc1ccc(-n2nc(C(C)(C)C)cc2NC(=O)N[C@H]2CCC[C@@H](Oc3ccc4nnc(C(C)C)n4c3)c3ccccc32)cc1 (racemic) [Example 18, (+/−) 1-(5-tert-Butyl-2-p-tolyl-2H-pyrazol-3-yl)-3-[9-(3-isopropyl-[1,2,4]triazolo[4,3-a]pyridin-6-yloxy)-cis-6,7,8,9-tetrahydro-5H-benzocyclohepten-5-yl]-urea] | 10 to 100 nM | – |
| Cc1ccc(-n2nc(C(C)(C)C)cc2NC(=O)N[C@H]2C[C@H](Oc3ccc4nnc(C(C)C)n4c3)c3ccccc32)cc1 [Example 13, 1-(5-tert-Butyl-2-p-tolyl-2H-pyrazol-3-yl)-3-[(1S,3S)-3-(3-isopropyl-[1,2,4]triazolo[4,3-a]pyridin-6-yloxy)-indan-1-yl]-urea] | < 10 nM | – |
| Cc1ccc(-n2nc(C(C)(C)C)cc2NC(=O)N[C@@H]2C[C@@H](Oc3ccc4nnc(C(C)C)n4c3)c3ccccc32)cc1 [Example 12, 1-(5-tert-Butyl-2-p-tolyl-2H-pyrazol-3-yl)-3-[(1R,3R)-3-(3-isopropyl[1,2,4]triazolo[4,3a]pyridin-6-yloxy)-indan-1-yl]urea] | 100 to 500 nM | – |
| CC(C)c1nnc2ccc(O[C@@H]3CC[C@H](NC(=O)Nc4cc(C(C)(C)C)on4)c4ccccc43)cn12 (racemic) [Example 6, (+/−) 1-(5-tert-Butyl-isoxazol-3-yl)-3-[4-(3-isopropyl-[1,2,4]triazolo[4,3-a]pyridin-6-yloxy)-cis-1,2,3,4-tetrahydro-naphthalen-1-yl]-urea] | < 10 nM | < 10 nM |
| Cc1ccc(-n2nc(C(C)(C)C)cc2NC(=O)N[C@H]2CC[C@@H](Oc3ccc4nnc(C(C)C)n4c3)c3ccccc32)cc1 [Example 10, 1-(5-tert-Butyl-2-p-tolyl-2H-pyrazol-3-yl)-3-[(1S,4R)-4-(3-isopropyl-[1,2,4]triazolo[4,3-a]pyridin-6-yloxy)-1,2,3,4-tetrahydro-naphthalen-1-yl]-urea] | < 10 nM | < 10 nM |
| Cc1ccc(-n2nc(C(C)(C)C)cc2NC(=O)N[C@H]2CC[C@@H](Oc3ccc4nnc(-c5ccccc5Cl)n4c3)c3ccccc32)cc1 (racemic) [Example 3, (+/−)1-(5-tert-Butyl-2-p-tolyl-2H-pyrazol-3-yl)-3-{4-[3-(2-chloro-phenyI)-[1,2,4]triazolo[4,3-a]pyridin-6-yloxy]-cis-1,2,3,4-tetrahydro-naphthalen-1-yl}-urea] | < 10 nM | < 10 nM |
| Cc1ccc(-n2nc(C(C)(C)C)cc2NC(=O)N[C@@H]2CC[C@H](Oc3ccc4nnc(C(C)C)n4c3)c3ccccc32)cc1 [Example 9, 1-(5-tert-Butyl-2-p-tolyl-2H-pyrazol-3-yl)-3-[(1R,4S)-4-(3-isopropyl-[1,2,4]triazolo[4,3-a]pyridin-6-yloxy)-1,2,3,4-tetrahydro-naphthalen-1-yl]-urea] | 100 to 500 nM | – |
| Cc1ccc(-n2nc(C(C)(C)C)cc2NC(=O)N[C@H]2CC[C@@H](Oc3ccc4nnc(-c5ccccc5OCc5ccccc5)n4c3)c3ccccc32)cc1 (racemic) [Example 5] | 10 to 100 nM | – |
| Cc1ccc(-n2nc(C(C)(C)C)cc2NC(=O)N[C@H]2CC[C@@H](Oc3ccc4nnc(C(C)C)n4c3)c3ccccc32)cc1 (racemic) [Example 1, (+/−) 1-(5-tert-Butyl-2-p-tolyl-2H-pyrazol-3-yl)-3-[4-(3-isopropyl-[1,2,4]-triazolo[4,3-a]pyridin-6-yloxy)-cis-1,2,3,4-tetrahydro-naphthalen-1-yl]-urea] | < 10 nM | < 10 nM |
| Cc1ccc(-n2nc(C(C)(C)C)cc2NC(=O)N[C@@H]2CC[C@@H](Oc3ccc4nnc(C(C)C)n4c3)c3ccccc32)cc1 [Example 8, 1-(5-tert-Butyl-2-p-tolyl-2H-pyrazol-3-yl)-3-[(1R,4R)-4-(3-isopropyl-[1,2,4]triazolo[4,3-a]pyridin-6-yloxy)-1,2,3,4-tetrahydro-naphthalen-1-yl]-urea] | 100 to 500 nM | – |
| Cc1ccc(-n2nc(C(C)(C)C)cc2NC(=O)N[C@H]2CC[C@H](Oc3ccc4nnc(-c5ccccc5SCCO)n4c3)c3ccccc32)cc1 [Example 20, 1-(5-tert-Butyl-2-p-tolyl-2H-pyrazol-3-yl)-3-((1S,4S)-4-{3-[2-(2-hydroxy-ethylsulfanyl)-phenyl]-[1,2,4]triazolo[4,3-a]pyridin-6-yloxy}-1,2,3,4-tetrahydro-naphthalen-1-yl)-urea] | < 10 nM | – |
| Cc1ccc(-n2nc(C(C)(C)C)cc2NC(=O)N[C@H]2CCC[C@H](Oc3ccc4nnc(C(C)C)n4c3)c3ccccc32)cc1 (racemic) [Example 19, (+/−) 1-(5-tert-Butyl-2-p-tolyl-2H-pyrazol-3-yl)-3-[9-(3-isopropyl-[1,2,4]triazolo[4,3-a]pyridin-6-yloxy)-trans-6,7,8,9-tetrahydro-5H-benzocyclohepten-5-yl]-urea] | 10 to 100 nM | – |
| COCC(=O)Nc1cc(CO[C@H]2CC[C@H](NC(=O)Nc3cc(C(C)(C)C)nn3-c3ccc(C)cc3)c3ccccc32)ccn1 [Example 22, N-(4-{(1S,4S)-4-[3-(5-tert-Butyl-2-p-tolyl-2H-pyrazol-3-yl)-ureido]-1,2,3,4-tetrahydro-naphthalen-1-yloxymethyl}-pyridin-2-yl)-2-methoxy-acetamide] | < 10 nM | – |
| COc1c(NC(=O)N[C@H]2CC[C@H](Oc3ccc4nnc(C(C)C)n4c3)c3ccccc32)cc(C(C)(C)C)cc1NS(C)(=O)=O [Example 17, N-(5-tert-Butyl-3-{3-[(1S,4S)-4-(3-isopropyl-[1,2,4]triazolo[4,3-a]pyridin-6-yloxy)-1,2,3,4-tetrahydro-naphthalen-1-yl]-ureido}-2-methoxy-phenyl)-methanesulfonamide] | < 10 nM | – |
| Cc1ccc(-n2nc(C(C)(C)C)cc2NC(=O)N[C@H]2CC[C@H](Oc3ccc4nnc(C(C)C)n4c3)c3ccccc32)cc1 [Example 11, 1-(5-tert-Butyl-2-p-tolyl-2H-pyrazol-3-yl)-3-[(1S,4S)-4-(3-isopropyl-[1,2,4]triazolo[4,3-a]pyridin-6-yloxy)-1,2,3,4-tetrahydro-naphthalen-1-yl]-urea] | < 10 nM | < 10 nM |
| CC(C)c1nnc2ccc(O[C@H]3CC[C@H](NC(=O)Nc4cc(C(C)(C)C)on4)c4ccccc43)cn12 [Example 16, 1-(5-tert-Butyl-isoxazol-3-yl)-3-[(1S,4S)-4-(3-isopropyl-[1,2,4]-triazolo[4,3-a]pyridin-6-yloxy)-1,2,3,4-tetrahydro-naphthalen-1-yl]-urea] | < 10 nM | – |
| Cc1ccc(-n2nc(C(C)(C)C)cc2NC(=O)N[C@H]2C[C@@H](Oc3ccc4nnc(C(C)C)n4c3)c3ccccc32)cc1 [Example 15, 1-(5-tert-Butyl-2-p-tolyl-2H-pyrazol-3-yl)-3-[(1S,3R)-3-(3-isopropyl-[1,2,4]triazolo[4,3-a]pyridin-6-yloxy)-indan-1-yl]-urea] | 500 to 7000 nM | – |
| Cc1ccc(-n2nc(C(C)(C)C)cc2NC(=O)N[C@@H]2C[C@H](Oc3ccc4nnc(C(C)C)n4c3)c3ccccc32)cc1 [Example 14, 1-(5-tert-Butyl-2-p-tolyl-2H-pyrazol-3-yl)-3-[(1R,3S)-3-(3-isopropyl-[1,2,4]-triazolo[4,3-a]pyridin-6-yloxy)-indan-1-yl]-urea] | 500 to 7000 nM | – |
| Cc1ccc(-n2nc(C(C)(C)C)cc2NC(=O)N[C@H]2CC[C@H](Oc3ccc4nnc(C(C)C)n4c3)c3ccccc32)cc1 (racemic) [Example 2, (+/−) 1-(5-tert-Butyl-2-p-tolyl-2H-pyrazol-3-yl)-3-[4-(3-isopropyl[1,2,4]triazolo[4,3-a]pyridin-6-yloxy)-trans-1,2,3,4-tetrahydro-naphthalen-1-yl]-urea] | < 10 nM | < 10 nM |
| Cc1ccc(-n2nc(C(C)(C)C)cc2NC(=O)N[C@H]2CC[C@@H](Oc3ccc4nnc(-c5ccccc5O)n4c3)c3ccccc32)cc1 (racemic) [Example 7, (+/−) 1-(5-tert-Butyl-2-p-tolyl-2H-pyrazol-3-yl)-3-{4-[3-(2-hydroxy-phenyl) [1,2,4]triazolo[4,3-a]pyridin-6-yloxy]-cis-1,2,3,4-tetrahydro-naphthalen-1-yl}-urea] | < 10 nM | < 10 nM |
